Reference: publication PMC10178127, “Immunomodulatory Effects of the Pea Defensin Psd1 in the Caco-2/Immune Cells Co-Culture upon Candida albicans Infection” (International Journal of Molecular Sciences, 2023)

System: monocyte-derived dendritic cells (moDCs)
Assay: Multiplex xMAP cytokine production, direct stimulation of moDCs
Assay type: cell-based, human
Details: 24 h
Procedure: Primary peripheral blood mononuclear cells (PBMCs) collected from healthy donors were purchased from American Type Culture Collection (ATCC PCS-800-011). Primary CD14^+ blood monocytes were isolated from PBMCs by adherence according to standard technique. Monocyte-derived mature dendritic cells (moDCs) were obtained from CD14^+ blood monocytes according to the previously reported protocol. Briefly, blood monocytes were incubated in a complete RPMI-1640 medium (Capricorn Scientific, Ebsdorfergrund, Germany), containing 10% fetal bovine serum (FBS, Capricorn Scientific, Ebsdorfergrund, Germany), 1× antibiotic-antimycotic solution (Invitrogen, Waltham, MA, USA), 800 U/mL rhGM-CSF (Sci-Store, Moscow, Russia) and 500 U/mL rhIL-4 (Sci-Store) for 3 days in CellXpert C170i CO2-incubator (Eppendorf, Hamburg, Germany). Fresh complete RPMI-1640 medium with rhGM-CSF and rhIL-4 was added to the culture on day 3. On day 5, fresh complete RPMI-1640 containing 100 U/mL rhTNF-α (Sigma-Aldrich, St. Louis, MO, USA) as well as 800 U/mL rhGM-CSF and 500 U/mL rhIL-4 was added and the culture was incubated for another 4 days until full maturation.
Monocytes and moDCs were seeded into the wells of 48- and 24-well plates in the complete RPMI-1640 medium supplemented with 10% human AB serum (HABS, Capricorn Scientific) without antibiotics 24 h prior to the experiment, and kept in a humidified CO2-incubator (5% CO2, 37 °C). After 24 h, the medium in the wells of the 48-well plate was replaced by fresh complete RPMI-1640 medium with 10% HABS, supplemented with 2 µM of Psd1 for the sample wells or fresh medium alone for the control wells. Medium in the wells of the 24-well plate was replaced by fresh complete RPMI-1640 medium with 10% human serum without antibiotics. Then, Millicell inserts with Caco-2 monolayers with TEER > 400 Ωcm^2 were placed into the wells of the 24-well plate, containing monocytes or moDCs. Wells with Millicell inserts with Caco-2 monolayers without immune cells were used as control wells. Medium in apical chambers of Millicell inserts was replaced by fresh complete RPMI-1640 with 10% human serum medium containing Psd1 at the final concentration of 2 µM or Candida albicans at the concentration of 5 × 10^4 cells/mL or yeast cells together with the pea defensin at the same concentration. Fresh complete RPMI-1640 medium only with 10% human serum and without antibiotics was used in control wells. Plates were kept in CO2-incubator (5% CO2, 37 °C) for another 24 h. Culture supernatants from the wells of the 48-well plate and basolateral chambers of the 24-well plate were collected and stored at −70 °C degrees less than one month prior to the analytes assessment.
The following 48 analytes were measured at a protein level by multiplex xMAP technology using the MILLIPLEX Human Cytokine/Chemokine/Growth Factor Panel A kit (HCYTA-60K-PX48, Merck, Darmstadt, Germany): sCD40L, EGF, Eotaxin-1/CCL11, FGF-2/FGF-basic, Flt-3 ligand, Fractalkine/CX3CL1, G-CSF, GM-CSF, GROα/CXCL1, IFNα2, IFNγ, IL-1α, IL-1β, IL-1RA, IL-2, IL-3, IL-4, IL-5, IL-6, IL-7, IL-8/CXCL8, IL-9, IL-10, IL-12(p40), IL-12(p70), IL-13, IL-15, IL-17A/CTLA8, IL-17E/IL-25, IL-17F, IL-18, IL-22, IL-27, IP-10/CXCL10, MCP-1/CCL2, MCP-3/CCL7, M-CSF, MDC/CCL22, MIG/CXCL9, MIP-1α/CCL3, MIP-1β/CCL4, PDGF-AA, PDGF-AB/BB, RANTES/CCL5, TGFα, TNFα, TNFβ, and VEGF-A. Multiplex-based assay read-out was performed using the MAGPIX system (Merck) with the xPONENT 4.2 software (Merck) in accordance with the manufacturer’s instruction with overnight incubation of the samples with primary antibodies. A final analysis was carried out with the MILLIPLEX Analyst v5.1 software (Merck). Measurements were performed twice for each sample. Release of the analytes in control and experimental samples was compared with an unpaired two-sample t-test using GraphPad Prism v.8.0.1 (GraphPad Software, Inc., San Diego, CA, USA). The p values ≤ 0.05 were considered significant.

Substance: Psd1: pea defensin from Pisum sativum (UNIPROT P81929), recombinant peptide overexpressed in Escherichia coli (KTCEHLADTYRGVCFTNASCDDHCKNKAHLISGTCHNWKCFCTQNC; UniProt P81929 1-46, looked up)
- EGF level (moDCs+Psd1, 2 µM, supernatant): 6.22 pg/mL
- Eotaxin level (moDCs+Psd1, 2 µM, supernatant): <3.52↓ pg/ml
- FGF-2 level (moDCs+Psd1, 2 µM, supernatant): 55.36 pg/mL
- FLT-3L level (moDCs+Psd1, 2 µM, supernatant): 1.05 pg/mL
- Fractalkine level (moDCs+Psd1, 2 µM, supernatant): <17.82↓ pg/ml
- G-CSF level (moDCs+Psd1, 2 µM, supernatant): 49.49 pg/mL
- GM-CSF level (moDCs+Psd1, 2 µM, supernatant): 11.89 pg/mL
- GROa level (moDCs+Psd1, 2 µM, supernatant): <0.61↓ pg/ml
- IFNa2 level (moDCs+Psd1, 2 µM, supernatant): 12.78 pg/mL
- IFNg level (moDCs+Psd1, 2 µM, supernatant): 7.25 pg/mL
- IL-1RA level (moDCs+Psd1, 2 µM, supernatant): 53.29 pg/mL
- IL-1a level (moDCs+Psd1, 2 µM, supernatant): 12.23 pg/mL
- IL-1b level (moDCs+Psd1, 2 µM, supernatant): <2.26↓ pg/ml
- IL-2 level (moDCs+Psd1, 2 µM, supernatant): 1.82 pg/mL
- IL-3 level (moDCs+Psd1, 2 µM, supernatant): 1.61 pg/mL
- IL-4 level (moDCs+Psd1, 2 µM, supernatant): <1.14↓ pg/ml
- IL-5 level (moDCs+Psd1, 2 µM, supernatant): 4.15 pg/mL
- IL-6 level (moDCs+Psd1, 2 µM, supernatant): 14.4 pg/mL
- IL-7 level (moDCs+Psd1, 2 µM, supernatant): <0.38↓ pg/ml
- IL-8 level (moDCs+Psd1, 2 µM, supernatant): 345.9 pg/mL
- IL-9 level (moDCs+Psd1, 2 µM, supernatant): 3.67 pg/mL
- IL-10 level (moDCs+Psd1, 2 µM, supernatant): 33.74 pg/mL
- IL-12 (p40) level (moDCs+Psd1, 2 µM, supernatant): 98.57 pg/mL
- IL-12 (p70) level (moDCs+Psd1, 2 µM, supernatant): <1.68↓ pg/ml
- IL-13 level (moDCs+Psd1, 2 µM, supernatant): 19.51 pg/mL
- IL-15 level (moDCs+Psd1, 2 µM, supernatant): 12.91 pg/mL
- IL-17A level (moDCs+Psd1, 2 µM, supernatant): 3.9 pg/mL
- IL-17E/IL-25 level (moDCs+Psd1, 2 µM, supernatant): <18.85↓ pg/ml
- IL-17F level (moDCs+Psd1, 2 µM, supernatant): <19.03↓ pg/ml
- IL-18 level (moDCs+Psd1, 2 µM, supernatant): 2.59 pg/mL
- IL-22 level (moDCs+Psd1, 2 µM, supernatant): 12.46 pg/mL
- IL-27 level (moDCs+Psd1, 2 µM, supernatant): 135.68 pg/mL
- IP-10 level (moDCs+Psd1, 2 µM, supernatant): 8892 pg/mL
- M-GSF level (moDCs+Psd1, 2 µM, supernatant): 218.78 pg/mL
- MCP-1 level (moDCs+Psd1, 2 µM, supernatant): 1760 pg/mL
- MCP-3 level (moDCs+Psd1, 2 µM, supernatant): 49.77 pg/mL
- MDC level (moDCs+Psd1, 2 µM, supernatant): 3016 pg/mL
- MIG level (moDCs+Psd1, 2 µM, supernatant): 30050 pg/mL
- MIP-1a level (moDCs+Psd1, 2 µM, supernatant): 185.33 pg/mL
- MIP-1b level (moDCs+Psd1, 2 µM, supernatant): 554.97 pg/mL
- PDGF-AA level (moDCs+Psd1, 2 µM, supernatant): 89.5 pg/mL
- PDGF-AB/BB level (moDCs+Psd1, 2 µM, supernatant): 139.81 pg/mL
- RANTES level (moDCs+Psd1, 2 µM, supernatant): 65.35 pg/mL
- TGF-a level (moDCs+Psd1, 2 µM, supernatant): 113.74 pg/mL
- TNFa level (moDCs+Psd1, 2 µM, supernatant): 55.68 pg/mL
- TNFb level (moDCs+Psd1, 2 µM, supernatant): 2.29 pg/mL
- VEGFa level (moDCs+Psd1, 2 µM, supernatant): <1.40↓ pg/ml
- sCD40L level (moDCs+Psd1, 2 µM, supernatant): 133.96 pg/mL
- increase in IL-12, IL-15, IL-27 and MCP-1 (moDCs, 2 μM): statistically significant
- production of TNFα, IL-6, IL-8, IP-10, MCP-3, and G-CSF (moDCs, 2 μM): increased
